T1: AHR (Homo sapiens, UniProt P35869)
T1 construct: HEK293 cells were transduced with a lentiviral vector containing a concatamer of Atoh1 enhancer A and B elements; endogenous in cells; host or cells: HEK293-derived Atoh1 reporter cell line
T1 sequence (P35869 11-848): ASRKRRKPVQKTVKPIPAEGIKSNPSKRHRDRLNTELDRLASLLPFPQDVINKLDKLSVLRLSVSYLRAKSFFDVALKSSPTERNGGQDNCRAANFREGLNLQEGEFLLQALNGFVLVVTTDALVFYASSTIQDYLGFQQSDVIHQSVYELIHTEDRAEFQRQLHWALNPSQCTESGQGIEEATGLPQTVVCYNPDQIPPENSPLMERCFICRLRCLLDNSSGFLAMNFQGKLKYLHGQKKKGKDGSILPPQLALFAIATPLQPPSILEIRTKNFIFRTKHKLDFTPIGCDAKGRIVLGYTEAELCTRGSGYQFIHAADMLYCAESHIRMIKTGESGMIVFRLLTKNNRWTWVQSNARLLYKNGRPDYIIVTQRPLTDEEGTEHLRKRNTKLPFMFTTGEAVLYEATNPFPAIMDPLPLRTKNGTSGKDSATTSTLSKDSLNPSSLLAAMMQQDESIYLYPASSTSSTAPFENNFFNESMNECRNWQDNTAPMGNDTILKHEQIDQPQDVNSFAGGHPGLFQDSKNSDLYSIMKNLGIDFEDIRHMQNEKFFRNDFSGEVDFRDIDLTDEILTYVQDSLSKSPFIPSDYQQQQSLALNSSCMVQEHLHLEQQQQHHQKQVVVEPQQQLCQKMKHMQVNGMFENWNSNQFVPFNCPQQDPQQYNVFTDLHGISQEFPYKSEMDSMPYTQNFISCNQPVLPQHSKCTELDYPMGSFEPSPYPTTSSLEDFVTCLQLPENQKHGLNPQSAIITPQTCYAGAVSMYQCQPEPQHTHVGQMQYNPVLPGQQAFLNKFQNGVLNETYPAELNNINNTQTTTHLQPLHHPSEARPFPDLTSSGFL

B1: AHR siRNA: pool of four siRNA sequences against human AHR (Thermo Scientific) (nucleic acid)
guide 1: GCAAGUUAAUGGCAUGUUU
guide 2: GAACUCAAGCUGUAUGGUA
guide 3: GCACGAGAGGCUCAGGUUA
guide 4: GCAACAAGAUGAGUCUAUU
modifications: pool of four siRNAs, further chemistry not given here

System: P5 rat cochlear explants
Assay: Tobramycin treatment of cochlear explants, hair cell and supporting cell marker mRNA
Format: cell-based
Conditions: tobramycin 1 mM, 3 days
Method: The ten selected hits of Example 43 were assayed for the ability to induce Atoh1 expression in primary cultured cochlear explants from the neonatal rat. Postnatal day 5 (P5) rat cochlear explants were cultured with the ototoxic aminoglycoside antibiotic, tobramycin (1 mM), for 3 days prior to drug testing, as an in vitro model of drug-induced hearing loss. […] See, e.g., Ruedi, et al., Larynoscope 62:333-357 (1952). After the 3 day tobramycin pretreatment, the cochlear explants were cultured with the compounds of Example 43 or DMSO vehicle for an additional 2 days. Atoh1 expression levels, measured by qRT-PCR and normalized to ribosomal 18S expression, after hit compound treatments are shown in FIG. 3.

With `NC[C@H]1O[C@H](O[C@H]2[C@H](O)[C@@H](O[C@H]3O[C@H](CO)[C@@H](O)[C@H](N)[C@H]3O)[C@H](N)C[C@@H]2N)[C@H](N)C[C@@H]1O` [tobramycin] the “Sox2 mRNA (supporting cell marker)” value was “without reducing”.

`NC[C@H]1O[C@H](O[C@H]2[C@H](O)[C@@H](O[C@H]3O[C@H](CO)[C@@H](O)[C@H](N)[C@H]3O)[C@H](N)C[C@@H]2N)[C@H](N)C[C@@H]1O` [tobramycin] was tested, and the “reduction of Atoh1 mRNA level” value was “more than 80%”.

With `NC[C@H]1O[C@H](O[C@H]2[C@H](O)[C@@H](O[C@H]3O[C@H](CO)[C@@H](O)[C@H](N)[C@H]3O)[C@H](N)C[C@@H]2N)[C@H](N)C[C@@H]1O` [tobramycin] the “reduction of MYO7A mRNA level” value was “more than 80%”.

System: Atoh1 enhancer reporter in HEK293 cells
Assay: Atoh1 reporter cell line, firefly luciferase normalized to renilla luciferase
Format: cell-based
Conditions: Atoh1 reporter cell line treated with AHR agonists for 2 days
Method: FIG. 2. Dose response data for selected hits. Atoh1 reporter cells plated in 384 well plates were treated with test compounds or vehicle controls for 2 days. Firefly luciferase signal was measured and normalized to the renilla luciferase signal. Results from duplicate wells (circles and triangles) are expressed relative to normalized controls treated with DMSO.
A reporter cell line expressed in HEK293 cells in which Atoh1 enhancer elements flanked a minimal promoter driving firefly luciferase expression was created. Dose response data was generated in the reporter cell line. Atoh1 reporter cells plated in […] plates were treated with test compounds or vehicle controls for 2 days. Firefly luciferase signal was measured and normalized to the renilla luciferase signal.
For high-throughput screening, HEK293 cells were transduced with a lentiviral vector containing a concatamer of Atoh1 enhancer A and B elements, the Promega minP minimal promoter, firefly luciferase coding sequence and hygromycin selectable marker. After selection, the cells were transduced with a second lentiviral vector containing the EF1α constitutive promoter, Renilla luciferase and puromycin selectable marker. A clonal derivative expressing both transgenes was expanded and banked for screening.
A screening assay was done by plating 8000 cells/well in 384 well plates, and treating for 48 hours with 1 and 10 μM test compound in DMSO, vehicle control, or the GSK-3B inhibitor, BIO, as a positive control. Firefly and Renilla luciferase were measured sequentially using Dual-Glo (Promega) with an Envision multi-label plate reader (Perkin Elmer). Data were analyzed after normalizing firefly luciferase signals to Renilla luciferase signals. A primary screen of 50,000 diverse compounds identified 140 hits. […] 10 of these 41 hits were selected for further analysis
To confirm activity in the 10 selected hits, the test compounds were reassayed at 3.3×10^−9, 1×10^−8, 3.3×10^−8, 1×10^−7, 3.3×10^−7, 1×10^−6, 3.3×10^−6 and 1×10^−5 molar concentrations. […] Results from duplicate wells (circles and triangles) are expressed relative to normalized controls treated with DMSO.

`COC(=O)c1csc(C(=O)c2c[nH]c3ccccc23)n1` [ITE, reference compound] was tested, and the Atoh1 reporter activity was “stimulated Atoh1 reporter activity”.
`CN1C(=O)/C(=C2\Nc3ccccc3\C2=N/O)c2ccc(Br)cc21` [MeBIO, reference compound] was tested, and the Atoh1 reporter activity was “stimulated Atoh1 reporter activity”.
`Br.Cc1ccc(C(=O)Cn2c3c(sc2=N)CCCC3)cc1` [Pfithrin-α-hydrobromide, reference compound] was tested, and the Atoh1 reporter activity was “stimulated Atoh1 reporter activity”.

Same assay, conditions: Homo sapiens, HEK293, 48 h, Atoh1 reporter HEK293 cells, treated 2 days, dose response; read-out: ED50 (the source's name)

Compared with `Cc1c(C(=O)N(C)c2nccs2)oc2ccccc12` [Compound 1, N,3-dimethyl-N-(thiazol-2-yl)benzofuran-2-carboxamide], `CN(C(=O)c1cc2ccccc2o1)c1nccs1` [Compound 2, N-methyl-N-(thiazol-2-yl)benzofuran-2-carboxamide] is 2.3-fold lower in EC50: 1.6 µM for the first, 0.7 µM for the second.

First: Cc1nc(NC(=O)c2oc3ccccc3c2C)sc1C [Compound 3]
Second: CCOC(=O)c1sc(NC(=O)c2oc3ccccc3c2C)nc1C [Compound 5]
The EC50 of the first is 3.9-fold higher: 2.7 µM for the first, 0.7 µM for the second. The second is the more potent here.

Going from `Cc1c(C(=O)Nc2nc(-c3ccccc3)cs2)oc2ccccc12` [Compound 6] to `Cc1c(C(=O)Nc2nc3ccc(Cl)cc3s2)oc2ccccc12` [Compound 12], the EC50 falls from 1.3 µM to 0.6 µM (2.2-fold). The second is the more potent here.

`Cc1c(C(=O)Nc2nc(C(C)(C)C)cs2)oc2ccccc12` [Compound 7] and `Cc1c(C(=O)Nc2nc(S(C)(=O)=O)cs2)oc2ccccc12` [Compound 8] are within 1.5-fold of each other in EC50: 1.3 µM for the first, 1.1 µM for the second.

Compared with `Cc1nc(NC(=O)c2oc3ccccc3c2C)sc1C(=O)N(C)C` [Compound 9], `COc1ccc2nc(NC(=O)c3oc4ccccc4c3C)sc2c1` [Compound 11] is 2.4-fold lower in EC50: 1.7 µM for the first, 0.7 µM for the second. The second is the more potent here.

Going from `O=C(Nc1nccs1)c1cc2ccccc2o1` [Compound 13] to `O=C(Nc1nccs1)c1cc2cc(Br)ccc2o1` [Compound 30], the EC50 rises from 0.4 µM to greater than 3 µM. The first is the more potent here.

First: COc1cccc2cc(C(=O)Nc3ncc(C)s3)oc12 [Compound 15]
Second: COc1cccc2cc(C(=O)Nc3nccs3)oc12 [Compound 16]
The EC50 of the first is 2.7-fold lower: 1 µM for the first, 2.7 µM for the second.

`O=C(Nc1nc2c(s1)CCCC2)c1cc2ccccc2o1` [Compound 17] and `CC(=O)c1sc(NC(=O)c2cc3ccccc3o2)nc1C` [Compound 39] are within 1.5-fold of each other in EC50: 0.4 µM for the first, 0.5 µM for the second.

Going from `Cc1c(C(=O)Nc2nccs2)oc2c1ccc1ccccc12` [Compound 18] to `Cc1c(C(=O)Nc2nccs2)oc2c(Cl)cccc12` [Compound 19], the EC50 falls from greater than 3 µM to 0.7 µM. The second is the more potent here.

Going from `COc1ccc2oc(C(=O)Nc3nc(CN4CCOCC4)cs3)c(C)c2c1` [Compound 21] to `COc1ccc2oc(C(=O)Nc3nc(C)cs3)c(C)c2c1` [Compound 35], the EC50 falls from 0.9 µM to 0.5 µM (1.8-fold). The second is the more potent here.

Going from `CSCc1c(C(=O)Nc2nccs2)oc2ccccc12` [Compound 22] to `COCc1c(C(=O)Nc2nccs2)oc2ccccc12` [Compound 25], the EC50 rises from 0.5 µM to 1.7 µM (3.4-fold). The first is the more potent here.

`CCOc1ccc2oc(C(=O)Nc3nccs3)c(C)c2c1` [Compound 23] and `Cc1c(C(=O)Nc2nccs2)oc2ccc(F)cc12` [Compound 31] are within 1.5-fold of each other in EC50: 0.5 µM for the first, 0.6 µM for the second.

Compared with `O=C(Nc1nccs1)c1oc2ccccc2c1COc1ccccc1` [Compound 24], `CSCc1c(C(=O)Nc2nc(C)cs2)oc2ccccc12` [Compound 28] is 1.9-fold higher in EC50: 0.7 µM for the first, 1.3 µM for the second. The first is the more potent here.

Compared with `Cc1csc(N(C(=O)c2cc3ccccc3o2)c2ccccc2)n1` [Compound 26], `Cc1cnc(NC(=O)c2cc3ccccc3o2)s1` [Compound 27] is lower in EC50: greater than 3 µM for the first, 0.2 µM for the second. The second is the more potent here.

First: CN(C(=O)c1cc2cccc(Br)c2o1)c1nccs1 [Compound 29]
Second: Cc1c(C(=O)Nc2nccs2)oc2ccc(Br)cc12 [Compound 36]
The EC50 of the first is 1.7-fold higher: 1.4 µM for the first, 0.8 µM for the second.

First: CCc1nc(NC(=O)c2oc3c(F)cccc3c2C)sc1C [Compound 32]
Second: Cc1csc(NC(=O)c2oc3c(Cl)cccc3c2C)n1 [Compound 38]
The EC50 of the first is lower: 1 µM for the first, greater than 3 µM for the second.

First: Cc1cnc(NC(=O)c2oc3ccc(Br)cc3c2C)s1 [Compound 33]
Second: Cc1csc(NC(=O)c2oc3ccc(Br)cc3c2C)n1 [Compound 34]
The EC50 of the first is 4-fold lower: 0.4 µM for the first, 1.6 µM for the second.

First: Cc1csc(NC(=O)c2oc3ccc(F)cc3c2C)n1 [Compound 37]
Second: Cc1c(C(=O)Nc2nccs2)oc2ccc(Cl)cc12 [Compound 41]
The EC50 of the first is 5.7-fold higher: 2.3 µM for the first, 0.4 µM for the second. The second is the more potent here.

Biological target: T1, AHR
Assay: AHR siRNA analysis in Atoh1 reporter cell line, luciferase assay and qRT-PCR
Format: cell-based
Conditions: 75 nM siRNA, 5 μM Compound 4 for 48 hours, luciferase assay
Method: An siRNA analysis was used to determine if AHR is required for the Atoh1-inducing activity of Compound 4. One day before transfection, the Atoh1 reporter cell line was plated at 1.5×10^5 cells/well in a 24-well plate. The cells were transfected with 75 nM on-target plus human AHR siRNA SMART pool or Non-target pool using DharmaFECT1 (Thermo Scientific). AHR siRNA sequences in the SMART pool were GCAAGUUAAUGGCAUGUUU, GAACUCAAGCUGUAUGGUA, GCACGAGAGGCUCAGGUUA, and GCAACAAGAUGAGUCUAUU. Mock-transfected cells served as an additional negative control. 16 hours after transfection, media were replaced with fresh complete medium containing 5 μM Compound 4 or DMSO. After 48 hours of treatment, cells were analyzed by luciferase assay and qRT-PCR.
AHR siRNA reduced AHR expression by 69%, while the control siRNA was without effect. […] Results are expressed in FIGS. 6A and 6B as the average±S.D. for triplicate wells. […] See, e.g., Ben-Arie, et al., Human Mol. Genetics 5(9):1207-1216 (1996).

For B1, the “reduction of Compound 4-mediated Atoh1 reporter activity” value was 54%.

Same assay, conditions: 75 nM siRNA, qRT-PCR

With B1 the “reduction of AHR expression” value was 69%.

From US20150126507A1, “COMPOUNDS TO TREAT HEARING LOSS” (Fate Therapeutics, Inc., priority 2013, published 2015)
